# Biological target: T1, human adrenergic-α2A receptor (Homo sapiens, UniProt P08913)
# T1 construct: expressed in transfected cells; host or cells: CHO cells, stably transfected; membrane preparation
# T1 sequence (P08913 1-465): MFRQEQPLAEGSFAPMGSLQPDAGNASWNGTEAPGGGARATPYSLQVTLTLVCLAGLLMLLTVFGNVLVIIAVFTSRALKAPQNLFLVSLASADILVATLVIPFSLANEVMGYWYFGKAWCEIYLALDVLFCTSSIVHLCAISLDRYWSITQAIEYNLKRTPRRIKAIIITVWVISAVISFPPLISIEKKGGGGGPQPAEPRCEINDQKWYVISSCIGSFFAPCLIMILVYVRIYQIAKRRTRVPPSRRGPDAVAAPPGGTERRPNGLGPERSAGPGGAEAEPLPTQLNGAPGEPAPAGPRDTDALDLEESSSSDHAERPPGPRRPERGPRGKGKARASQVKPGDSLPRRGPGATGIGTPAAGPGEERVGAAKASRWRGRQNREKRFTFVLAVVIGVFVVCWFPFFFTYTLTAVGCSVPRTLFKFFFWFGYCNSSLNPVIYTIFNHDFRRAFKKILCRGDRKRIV
# Assay: Radioligand binding experiment for hα2A-adrenergic receptor ([3H]raulwolscine)
# Conditions: [3H]raulwolscine 1 nM, 60 minutes at 25° C.; read-out: h-α2A pIC50 (converted)
# Outline: (§1)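 CHO membranes expressing human α2A or α2C receptors were incubated with 1 nM [^3H]raulwolscine for 60 min at 25° C in glycylglycine 25 mM, pH 8.0, then filtered. Nonspecific binding was defined with 1 μM oxymetazoline for α2A and 1 μM spiroxatrine for α2C. pIC50 came from sigmoidal competition curves.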
row,Structure (SMILES),IC50
1,CCOC(CCn1ccnc(NC2CCN(Cc3ccc4ccccc4c3)CC2)c1=O)OCC [4-02],794 nM
2,O=C(Cn1ccnc(NC2CCN(Cc3ccc4ccccc4c3)CC2)c1=O)NCCCc1ccccc1 [1-72],200 nM
3,O=c1c(NC2CCN(Cc3ccc4ccccc4c3)CC2)nccn1Cc1cccc([N+](=O)[O-])c1 [5-09],200 nM
4,O=C(Cn1ccnc(NC2CCN(Cc3ccc4ccccc4c3)CC2)c1=O)Nc1ccc(F)cc1 [1-65],158 nM
5,CN(C)CCN(C)Cc1ccc(-n2ccnc(NC3CCN(Cc4ccc5ccccc5c4)CC3)c2=O)cc1 [1-39],79.4 nM
6,O=c1c(NC2CCN(Cc3ccc4ccccc4c3)CC2)nccn1Cc1cccc(Br)c1 [5-13],200 nM
7,O=C(NCc1ccccc1)NCc1ccc(-n2ccnc(NC3CCN(Cc4ccc5ccccc5c4)CC3)c2=O)cc1 [1-48],316 nM
8,CC(=O)N1CCc2ccc(-n3ccnc(NC4CCN(Cc5ccc6ccccc6c5)CC4)c3=O)cc2C1 [6-13],126 nM
9,CC(C)(Cc1ccccc1)NC(=O)Cn1ccnc(NC2CCN(Cc3ccc4ccccc4c3)CC2)c1=O [1-73],398 nM
10,Cc1ccc(CNCc2ccc(-n3ccnc(NC4CCN(Cc5ccc6ccccc6c5)CC4)c3=O)cc2F)o1 [1-84],200 nM
11,O=C1c2ccccc2C(=O)N1CCCn1ccnc(NC2CCN(Cc3ccc4ncccc4c3)CC2)c1=O [9-07],1580 nM
12,O=c1c(NC2CCN(Cc3ccc4ccccc4c3)CC2)nccn1-c1ccc(CN2CCC(F)CC2)c(F)c1 [2-13],63.1 nM
13,O=c1c(NC2CCN(Cc3ccc4ccccc4c3)CC2)nccn1-c1ccc2cc[nH]c2c1 [6-03],50.1 nM
14,O=c1c(NC2CCN(Cc3ccc4ccccc4c3)CC2)nccn1CCCOCc1ccccc1 [3-11],251 nM
15,O=c1c(NC2CCN(Cc3ccc4ccccc4c3)CC2)nccn1CCCNCc1ccccc1 [1-67],631 nM
16,CN(CCCn1ccnc(NC2CCN(Cc3ccc4ccccc4c3)CC2)c1=O)C(=O)OC(C)(C)C [1-35],316 nM
17,CCN(CC)CCC(=O)NCc1ccc(-n2ccnc(NC3CCN(Cc4ccc5ccccc5c4)CC3)c2=O)cc1 [1-58],79.4 nM
18,O=C(Cn1ccnc(NC2CCN(Cc3ccc4ccccc4c3)CC2)c1=O)NCc1ccccc1 [1-68],200 nM
19,CCCC(=O)N(Cc1ccc(-n2ccnc(NC3CCN(Cc4ccc5ccccc5c4)CC3)c2=O)cc1)C(=O)CCC [1-29],398 nM
20,CCCC(=O)NCc1ccc(-n2ccnc(NC3CCN(Cc4ccc5ccccc5c4)CC3)c2=O)cc1OC [1-25],631 nM
21,O=c1c(NC2CCN(Cc3ccc4ccccc4c3)CC2)nccn1-c1csc2ccccc12 [6-04],251 nM
22,O=c1c(NC2CCN(Cc3ccc4ccccc4c3)CC2)nccn1-c1ccc(COCC2CCCO2)cc1 (stereo not drawn) [3-14],251 nM
23,O=c1c(NC2CCN(Cc3ccc4ccccc4c3)CC2)nccn1CCOC1CCCCO1 (stereo not drawn) [3-12],631 nM

# Biological target: T2, human adrenergic-α2C receptor (Homo sapiens, UniProt P18825)
# T2 construct: expressed in transfected cells; host or cells: CHO cells, stably transfected; membrane preparation
# T2 sequence (P18825 1-462): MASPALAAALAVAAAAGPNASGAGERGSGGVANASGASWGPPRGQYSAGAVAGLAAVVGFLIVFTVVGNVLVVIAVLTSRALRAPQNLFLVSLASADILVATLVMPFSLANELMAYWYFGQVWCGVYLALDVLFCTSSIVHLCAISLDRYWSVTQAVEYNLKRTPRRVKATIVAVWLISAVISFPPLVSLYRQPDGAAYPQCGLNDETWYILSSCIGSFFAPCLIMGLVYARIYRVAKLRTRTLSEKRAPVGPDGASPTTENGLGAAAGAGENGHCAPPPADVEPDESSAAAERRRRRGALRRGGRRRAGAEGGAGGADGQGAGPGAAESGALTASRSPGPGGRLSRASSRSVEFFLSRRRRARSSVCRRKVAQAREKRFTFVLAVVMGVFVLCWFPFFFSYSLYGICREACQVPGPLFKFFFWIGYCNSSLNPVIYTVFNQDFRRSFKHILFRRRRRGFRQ
# Assay: Radioligand binding experiment for hα2C-adrenoceptor ([3H]raulwolscine)
# Conditions: [3H]raulwolscine 1 nM, 60 minutes at 25° C.; read-out: h-α2C pIC50 (converted)
# Outline: as §1
row,Structure (SMILES),IC50
1,CCOC(CCn1ccnc(NC2CCN(Cc3ccc4ccccc4c3)CC2)c1=O)OCC [4-02],79.4 nM
2,O=C(Cn1ccnc(NC2CCN(Cc3ccc4ccccc4c3)CC2)c1=O)NCCCc1ccccc1 [1-72],31.6 nM
3,O=c1c(NC2CCN(Cc3ccc4ccccc4c3)CC2)nccn1Cc1cccc([N+](=O)[O-])c1 [5-09],79.4 nM
4,O=C(Cn1ccnc(NC2CCN(Cc3ccc4ccccc4c3)CC2)c1=O)Nc1ccc(F)cc1 [1-65],39.8 nM
5,CN(C)CCN(C)Cc1ccc(-n2ccnc(NC3CCN(Cc4ccc5ccccc5c4)CC3)c2=O)cc1 [1-39],15.8 nM
6,O=c1c(NC2CCN(Cc3ccc4ccccc4c3)CC2)nccn1Cc1cccc(Br)c1 [5-13],126 nM
7,O=C(NCc1ccccc1)NCc1ccc(-n2ccnc(NC3CCN(Cc4ccc5ccccc5c4)CC3)c2=O)cc1 [1-48],39.8 nM
8,CC(=O)N1CCc2ccc(-n3ccnc(NC4CCN(Cc5ccc6ccccc6c5)CC4)c3=O)cc2C1 [6-13],10 nM
9,CC(C)(Cc1ccccc1)NC(=O)Cn1ccnc(NC2CCN(Cc3ccc4ccccc4c3)CC2)c1=O [1-73],39.8 nM
10,Cc1ccc(CNCc2ccc(-n3ccnc(NC4CCN(Cc5ccc6ccccc6c5)CC4)c3=O)cc2F)o1 [1-84],10 nM
11,O=C1c2ccccc2C(=O)N1CCCn1ccnc(NC2CCN(Cc3ccc4ncccc4c3)CC2)c1=O [9-07],63.1 nM
12,O=c1c(NC2CCN(Cc3ccc4ccccc4c3)CC2)nccn1-c1ccc(CN2CCC(F)CC2)c(F)c1 [2-13],3.98 nM
13,O=c1c(NC2CCN(Cc3ccc4ccccc4c3)CC2)nccn1-c1ccc2cc[nH]c2c1 [6-03],39.8 nM
14,O=c1c(NC2CCN(Cc3ccc4ccccc4c3)CC2)nccn1CCCOCc1ccccc1 [3-11],25.1 nM
15,O=c1c(NC2CCN(Cc3ccc4ccccc4c3)CC2)nccn1CCCNCc1ccccc1 [1-67],25.1 nM
16,CN(CCCn1ccnc(NC2CCN(Cc3ccc4ccccc4c3)CC2)c1=O)C(=O)OC(C)(C)C [1-35],25.1 nM
17,CCN(CC)CCC(=O)NCc1ccc(-n2ccnc(NC3CCN(Cc4ccc5ccccc5c4)CC3)c2=O)cc1 [1-58],7.94 nM
18,O=C(Cn1ccnc(NC2CCN(Cc3ccc4ccccc4c3)CC2)c1=O)NCc1ccccc1 [1-68],20 nM
19,CCCC(=O)N(Cc1ccc(-n2ccnc(NC3CCN(Cc4ccc5ccccc5c4)CC3)c2=O)cc1)C(=O)CCC [1-29],39.8 nM
20,CCCC(=O)NCc1ccc(-n2ccnc(NC3CCN(Cc4ccc5ccccc5c4)CC3)c2=O)cc1OC [1-25],39.8 nM
21,O=c1c(NC2CCN(Cc3ccc4ccccc4c3)CC2)nccn1-c1csc2ccccc12 [6-04],50.1 nM
22,O=c1c(NC2CCN(Cc3ccc4ccccc4c3)CC2)nccn1-c1ccc(COCC2CCCO2)cc1 (stereo not drawn) [3-14],3.98 nM
23,O=c1c(NC2CCN(Cc3ccc4ccccc4c3)CC2)nccn1CCOC1CCCCO1 (stereo not drawn) [3-12],79.4 nM

# Biological target: T3, 5HT-transporter (Homo sapiens, UniProt P31645)
# T3 construct: Human platelet membranes (Oceanix Biosciences Corporation, Hanover, Md., USA) were thawed; tissue Oceanix Biosciences Corporation, Hanover, Md., USA; host or cells: human platelet membranes
# Assay: Binding experiment for the 5HT-transporter ([3H]paroxetine, human platelet membranes)
# Conditions: [3H]paroxetine 0.5 nM, 60 min at 25° C., read-out: h-5HTT pIC50 (converted)
# Outline: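 Competition binding of [3H]paroxetine to human platelet membranes in Tris-HCl 50 mM with 120 mM NaCl and 5 mM KCl; bound radioligand separated by GF/B filtration and counted.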
# T3 sequence (P31645 whole entry): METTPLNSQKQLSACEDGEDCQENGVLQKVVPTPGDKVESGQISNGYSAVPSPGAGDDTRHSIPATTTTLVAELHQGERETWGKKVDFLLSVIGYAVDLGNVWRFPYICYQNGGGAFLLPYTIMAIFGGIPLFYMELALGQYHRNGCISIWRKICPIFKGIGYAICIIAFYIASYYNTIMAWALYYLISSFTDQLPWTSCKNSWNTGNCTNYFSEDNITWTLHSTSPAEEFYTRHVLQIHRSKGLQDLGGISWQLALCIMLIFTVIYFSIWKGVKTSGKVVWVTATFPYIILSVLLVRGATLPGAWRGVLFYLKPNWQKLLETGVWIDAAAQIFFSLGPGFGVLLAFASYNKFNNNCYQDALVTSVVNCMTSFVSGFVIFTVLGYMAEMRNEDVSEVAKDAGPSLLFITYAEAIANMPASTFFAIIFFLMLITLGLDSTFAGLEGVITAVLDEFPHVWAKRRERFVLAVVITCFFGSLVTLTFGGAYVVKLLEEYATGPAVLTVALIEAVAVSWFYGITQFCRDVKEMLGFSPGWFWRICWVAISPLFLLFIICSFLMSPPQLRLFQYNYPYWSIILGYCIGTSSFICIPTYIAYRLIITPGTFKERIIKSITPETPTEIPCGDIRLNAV
row,Structure (SMILES),IC50
1,CCOC(CCn1ccnc(NC2CCN(Cc3ccc4ccccc4c3)CC2)c1=O)OCC [4-02],251 nM
2,O=C(Cn1ccnc(NC2CCN(Cc3ccc4ccccc4c3)CC2)c1=O)NCCCc1ccccc1 [1-72],63.1 nM
3,O=c1c(NC2CCN(Cc3ccc4ccccc4c3)CC2)nccn1Cc1cccc([N+](=O)[O-])c1 [5-09],50.1 nM
4,O=C(Cn1ccnc(NC2CCN(Cc3ccc4ccccc4c3)CC2)c1=O)Nc1ccc(F)cc1 [1-65],158 nM
5,CN(C)CCN(C)Cc1ccc(-n2ccnc(NC3CCN(Cc4ccc5ccccc5c4)CC3)c2=O)cc1 [1-39],63.1 nM
6,O=c1c(NC2CCN(Cc3ccc4ccccc4c3)CC2)nccn1Cc1cccc(Br)c1 [5-13],126 nM
7,O=C(NCc1ccccc1)NCc1ccc(-n2ccnc(NC3CCN(Cc4ccc5ccccc5c4)CC3)c2=O)cc1 [1-48],10 nM
8,CC(=O)N1CCc2ccc(-n3ccnc(NC4CCN(Cc5ccc6ccccc6c5)CC4)c3=O)cc2C1 [6-13],25.1 nM
9,CC(C)(Cc1ccccc1)NC(=O)Cn1ccnc(NC2CCN(Cc3ccc4ccccc4c3)CC2)c1=O [1-73],158 nM
10,Cc1ccc(CNCc2ccc(-n3ccnc(NC4CCN(Cc5ccc6ccccc6c5)CC4)c3=O)cc2F)o1 [1-84],3.16 nM
11,O=C1c2ccccc2C(=O)N1CCCn1ccnc(NC2CCN(Cc3ccc4ncccc4c3)CC2)c1=O [9-07],50.1 nM
12,O=c1c(NC2CCN(Cc3ccc4ccccc4c3)CC2)nccn1-c1ccc(CN2CCC(F)CC2)c(F)c1 [2-13],6.31 nM
13,O=c1c(NC2CCN(Cc3ccc4ccccc4c3)CC2)nccn1-c1ccc2cc[nH]c2c1 [6-03],50.1 nM
14,O=c1c(NC2CCN(Cc3ccc4ccccc4c3)CC2)nccn1CCCOCc1ccccc1 [3-11],20 nM
15,O=c1c(NC2CCN(Cc3ccc4ccccc4c3)CC2)nccn1CCCNCc1ccccc1 [1-67],158 nM
16,CN(CCCn1ccnc(NC2CCN(Cc3ccc4ccccc4c3)CC2)c1=O)C(=O)OC(C)(C)C [1-35],39.8 nM
17,CCN(CC)CCC(=O)NCc1ccc(-n2ccnc(NC3CCN(Cc4ccc5ccccc5c4)CC3)c2=O)cc1 [1-58],6.31 nM
18,O=C(Cn1ccnc(NC2CCN(Cc3ccc4ccccc4c3)CC2)c1=O)NCc1ccccc1 [1-68],158 nM
19,CCCC(=O)N(Cc1ccc(-n2ccnc(NC3CCN(Cc4ccc5ccccc5c4)CC3)c2=O)cc1)C(=O)CCC [1-29],20 nM
20,CCCC(=O)NCc1ccc(-n2ccnc(NC3CCN(Cc4ccc5ccccc5c4)CC3)c2=O)cc1OC [1-25],12.6 nM
21,O=c1c(NC2CCN(Cc3ccc4ccccc4c3)CC2)nccn1-c1csc2ccccc12 [6-04],31.6 nM
22,O=c1c(NC2CCN(Cc3ccc4ccccc4c3)CC2)nccn1-c1ccc(COCC2CCCO2)cc1 (stereo not drawn) [3-14],15.8 nM
23,O=c1c(NC2CCN(Cc3ccc4ccccc4c3)CC2)nccn1CCOC1CCCCO1 (stereo not drawn) [3-12],79.4 nM
